Patent EP0488424B1, “Recombinant DNA sequences encoding feedback inhibition released enzymes, plasmids comprising the recombinant DNA sequences, transformed microorganisms useful in the production of aromatic amino acids, and a process for preparing aromatic amino acids by fermentation” (priority 1990, dated 1992)

Tests used:
Format in all cases: biochemical
[1] = molecular target: T1, Escherichia coli DS encoded by aroG, variant aroG29, 147 Met → Ile (pTS-aroG29) (Escherichia coli, UniProt P0AB91, M147I); assay: DS enzyme activity in the presence of L-phenylalanine (crude enzyme solution); conditions: crude enzyme of AJ 12602 (AB3257/pTS-aroG29); Fig. 3
T1 construct: cloning the natural DS gene of Escherichia coli; made in house; host or cells: Escherichia coli AB3257 (strain AJ 12602), crude enzyme solution
Description: (§1) The above plasmids, bearing either mutant aroF (pTS-aroF15 and pTS-aroF33) or mutant aroG (pTS-aroG4, pTS-aroG8, pTS-aroG15, pTS-aroG17, pTS-aroG29 and pTS-aroG40), were used to transform Escherichia coli AB3257 strain having no DS activity. The respective transformants were named AJ 12598 (AB3257/pTS-aroF15), AJ 12599 (AB3257/pTS-aroF33), AJ 12562 (AB3257/pTS-aroG4), AJ 12600 (AB3257/pTS-aroG8), AJ 12563 (AB3257/pTS-aroG15), AJ 12601 (AB3257/pTS-aroG17), AJ 12602 (AB3257/pTS-aroG29) and AJ 12603 (AB3257/pTS-aroG40), respectively. Among them, AJ 12563 and AJ 12603 were deposited as representative strains in the Fermentation Research Institute of the Agency of Industrial Science & Technology of Japan, under the deposit numbers Escherichia coli FERM BP-3567 and FERM BP-3568, respectively. For the purpose of comparison, plasmids hearing wild type genes were also used to transform the E. coli AB3257 strain.
(§2) Each of these strains were cultured for 24 hours in a known L-phenylalanine-producing medium [Sugimoto, S. et al., J. Biotechnol., 5, 237 (1988)]. From the culture cells, the crude enzyme solution was prepared by ultrasonic homogenization. The enzyme activity of DS was determined in a conventional manner [Gollub, E. et al., Methods Enzymol., 17, 349], in the presence of L-tyrosine in the case of aroF, and in the presence of L-phenylalanine in the case of aroG.

[2] = molecular target: T2, Escherichia coli DS encoded by aroG, variant aroG17, 147 Met → Ile, 332 Glu → Lys (pTS-aroG17) (Escherichia coli, UniProt P0AB91, E332K/M147I); assay: as above; conditions: crude enzyme of AJ 12601 (AB3257/pTS-aroG17); Fig. 3
T2 construct: cloning the natural DS gene of Escherichia coli; made in house; host or cells: Escherichia coli AB3257 (strain AJ 12601), crude enzyme solution
Description: as §1, §2

[3] = molecular target: T3, Escherichia coli DS encoded by aroG, variant aroG40, 157 Met → Ile, 219 Ala → Thr (pTS-aroG40) (Escherichia coli, UniProt P0AB91, A219T/M157I); assay: as above; conditions: crude enzyme of AJ 12603 (AB3257/pTS-aroG40); Fig. 3
T3 construct: cloning the natural DS gene of Escherichia coli; made in house; host or cells: Escherichia coli AB3257 (strain AJ 12603), crude enzyme solution
Description: as §1, §2

[4] = molecular target: T4, Escherichia coli DS encoded by aroG, variant aroG4, 150 Pro → Leu (pTS-aroG4, strain AJ 12562) (Escherichia coli, UniProt P0AB91, P150L); assay: as above; conditions: crude enzyme of AJ 12562 (AB3257/pTS-aroG4); Fig. 3
T4 construct: cloning the natural DS gene of Escherichia coli; made in house; host or cells: Escherichia coli AB3257 (strain AJ 12562), crude enzyme solution
Description: as §1, §2

[5] = molecular target: T5, Escherichia coli 3-deoxy-D-arabinoheptulonic acid-7-phosphate synthase (DS) encoded by aroG, wild type (pTS-aroG) (Escherichia coli, UniProt P0AB91); assay: as above; conditions: crude enzyme of AB3257/pTS-aroG; concentration not stated in text (Fig. 3)
T5 construct: cloning the natural DS gene of Escherichia coli; made in house; host or cells: Escherichia coli AB3257 (no DS activity), crude enzyme solution
Description: as §1, §2

[6] = molecular target: T6, Escherichia coli DS encoded by aroG, variant aroG15, 146 Asp → Asn (pTS-aroG15) (Escherichia coli, UniProt P0AB91, D146N); assay: as above; conditions: crude enzyme of AJ 12563 (AB3257/pTS-aroG15); Fig. 3
T6 construct: cloning the natural DS gene of Escherichia coli; made in house; host or cells: Escherichia coli AB3257 (strain AJ 12563), crude enzyme solution
Description: as §1, §2

[7] = molecular target: T7, Escherichia coli DS encoded by aroG, variant aroG8, 202 Ala → Thr (pTS-aroG8) (Escherichia coli, UniProt P0AB91, A202T); assay: as above; conditions: crude enzyme of AJ 12600 (AB3257/pTS-aroG8); Fig. 3
T7 construct: cloning the natural DS gene of Escherichia coli; made in house; host or cells: Escherichia coli AB3257 (strain AJ 12600), crude enzyme solution
Description: as §1, §2

[8] = molecular target: T8, Escherichia coli K-12 chorismate mutase-prephenate dehydratase (CM-PD), variant with 330 serine residue substituted with a proline residue (pPHAB) (Escherichia coli, UniProt P0A9J8, S330P); assay: PD enzyme activity in the presence of L-phenylalanine (crude enzyme); conditions: 5 mM L-phenylalanine; 1 mM barium prephenate, 0.5 mM L-tyrosine, pH 8.2, 37°C, 10 minutes; Fig. 4
T8 construct: the natural CM-PD gene of Escherichia coli is cloned; made in house; host or cells: Escherichia coli K-12 W3110 (tyrA), crude enzyme solution
Experimental: (§3) Escherichia coli K-12 W3110 (tyrA)/(pPHAB) strain was cultured at 37°C for 15 hours in L medium and the cells were collected by centrifugation. Then, the cells were washed twice with physiological saline, and suspended in 250 mM Tris-hydrochloride buffer (pH 7.5) containing 0.5 mM dithiothreitol under ice cooling. By ultrasonication (20 KHz) for 30 seconds four times, the crude enzyme solution was prepared.
(§4) The PD enzyme activity was determined in a conventional manner [Cotton, R.G.H. and Gibson, F., Meth. in Enzymol., 17, 564 (1970)]. Using the crude enzyme, the enzymatic reaction was carried out at 37°C for 10 minutes in the presence of 50 mM Tris-hydrochloride buffer (pH 8.2) containing 1 mM barium prephenate and 0.5 mM L-tyrosine. Aqueous sodium hydroxide (1 N) was added to terminate the reaction, and the formed phenylpyruvic acid was measured at an extinction wavelength of 320 nm.
(§5) Quantitative determination of protein was made using the Protein Assay Kit (manufactured by Bio Rad Co.), according to the protocol of the manufacturer.

[9] = molecular target: T9, Escherichia coli chorismate mutase-prephenate dehydratase (CM-PD), wild type (Escherichia coli, UniProt P0A9J8); assay: as above; conditions: 0.5 mM L-phenylalanine; 1 mM barium prephenate, 0.5 mM L-tyrosine, pH 8.2, 37°C, 10 minutes; Fig. 4
T9 construct: the natural CM-PD gene of Escherichia coli is cloned; made in house
Experimental: as §3, §4, §5

[10] = molecular target: T10, Escherichia coli K-12 chorismate mutase-prephenate dehydratase (CM-PD), variant with 330 serine residue substituted with an aspartic acid (pPHAD) (Escherichia coli, UniProt P0A9J8, S330D); assay: as above; conditions: crude enzyme of W3110 (tyrA)/(pPHAD); concentration not given
T10 construct: the natural CM-PD gene of Escherichia coli is cloned; made in house; host or cells: Escherichia coli W3110 (tyrA), crude enzyme
Experimental: as §3, §4, §5
(§6) By using the same method above, the PD enzyme activities of Escherichia coli W3110 (tyrA)/(pPHAD) and Escherichia coli W3110 (tyrA)/(pPHATerm) were determined.

[11] = molecular target: T11, Escherichia coli K-12 chorismate mutase-prephenate dehydratase (CM-PD), variant with amino acid residues downstream from the 330 serine residue deleted (pPHATer (Escherichia coli, UniProt P0A9J8)); assay: as above; conditions: crude enzyme of W3110 (tyrA)/(pPHATerm); concentration not given
T11 construct: made in house; host or cells: Escherichia coli W3110 (tyrA), crude enzyme
Experimental: as §3, §4, §5, §6

[12] = molecular target: T12, Escherichia coli 3-deoxy-D-arabinoheptulonic acid-7-phosphate synthase (DS) encoded by aroF, wild type (pTS-aroF) (Escherichia coli, UniProt P00888); assay: DS enzyme activity in the presence of L-tyrosine (crude enzyme solution); conditions: crude enzyme of AB3257/pTS-aroF; concentration not stated in text (Fig. 2)
T12 construct: cloning the natural DS gene of Escherichia coli; made in house; host or cells: Escherichia coli AB3257 (aroF, aroG, aroH deleted), crude enzyme solution
Description: as §1, §2

[13] = molecular target: T13, Escherichia coli DS encoded by aroF, variant aroF33, 181 Ser → Phe (pTS-aroF33) (Escherichia coli, UniProt P00888, S181F); assay: as above; conditions: crude enzyme of AJ 12599 (AB3257/pTS-aroF33); concentration not stated in text (Fig. 2)
T13 construct: cloning the natural DS gene of Escherichia coli; made in house; host or cells: Escherichia coli AB3257 (strain AJ 12599), crude enzyme solution
Description: as §1, §2

[14] = molecular target: T14, Escherichia coli DS encoded by aroF, variant aroF15, 147 Asp → Asn (pTS-aroF15) (Escherichia coli, UniProt P00888, D147N); assay: as above; conditions: crude enzyme of AJ 12598 (AB3257/pTS-aroF15); concentration not stated in text (Fig. 2)
T14 construct: cloning the natural DS gene of Escherichia coli; made in house; host or cells: Escherichia coli AB3257 (strain AJ 12598), crude enzyme solution
Description: as §1, §2

SMILES	inhibition by L-phenylalanine of DS enzyme activity [1]	inhibition by L-phenylalanine of DS enzyme activity [2]	inhibition by L-phenylalanine of DS enzyme activity [3]	DS enzyme activity as a function of L-phenylalanine concentration [4]	inhibition by L-phenylalanine of DS enzyme activity [4]	inhibition by L-phenylalanine of DS enzyme activity [5]	inhibition by L-phenylalanine of DS enzyme activity [6]	inhibition by L-phenylalanine of DS enzyme activity [7]	inhibition by L-phenylalanine of prephenate dehydratase activity [8]	inhibition by L-phenylalanine of prephenate dehydratase activity [9]	feedback inhibition by L-phenylalanine of PD enzyme activity [10]	feedback inhibition by L-phenylalanine of PD enzyme activity [11]	inhibition by L-tyrosine of DS enzyme activity [12]	inhibition by L-tyrosine of DS enzyme activity [13]	inhibition by L-tyrosine of DS enzyme activity [14]
N[C@@H](Cc1ccccc1)C(=O)O [L-phenylalanine]	feedback inhibition by L-phenylalanine is released	feedback inhibition by L-phenylalanine is released	feedback inhibition by L-phenylalanine is released	increases as the concentration of L-phenylalanine increases	releases feedback inhibition	strongly inhibited	feedback inhibition by L-phenylalanine is released	feedback inhibition by L-phenylalanine is released	almost no inhibition	strongly inhibited	released from feedback inhibition	released from feedback inhibition			
N[C@@H](Cc1ccc(O)cc1)C(=O)O [L-tyrosine]													strongly inhibited	released from feedback inhibition	released from feedback inhibition
